Results on four compounds are retold here after patent publication US11230538B2, “Herbicides” (SYNGENTA PARTICIPATIONS AG, priority 2016, dated 2022).

What all share (type): in vivo
Assay [1] has as its system Alopecurus myosuroides (ALOMY). The experiment in a line: B1 Pre-emergence herbicidal activity. On the set-up: key: 5=total damage to plant; 0=no damage to plant. Conditions: pre-emergence application, rate 1000 g/ha, evaluated after 13 days. The method in brief:
(§1)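 Sow in soil → 1 d glasshouse (24/16 °C, 14 h light, 65% RH) → spray pre-emergence (acetone/water 50:50, 0.5% Tween 20) → grow 13 d, water twice daily → score 0–5 (5 = total damage).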

Assay [2] has as its system Avena fatua (AVEFA). Kind of assay: B1 Pre-emergence herbicidal activity. Also on record: key: 5=total damage to plant; 0=no damage to plant. As to conditions: pre-emergence application, rate 1000 g/ha, evaluated after 13 days. The method in brief: as §1
Assay [3] has as its system Triticum aestivium (TRZAW). Kind of assay: B1 Pre-emergence herbicidal activity. Also on record: key: 5=total damage to plant; 0=no damage to plant. Conditions: pre-emergence application, rate 1000 g/ha, evaluated after 13 days. In short, it runs like this: as §1
For assay [4], the system named is Echinochloa crus-galli (ECHCG). The experiment in a line: B1 Pre-emergence herbicidal activity. Conditions: pre-emergence application, rate 1000 g/ha, evaluated after 13 days. In short, it runs like this:
as §1

For assay [5], the system named is Lolium perenne (LOLPE). The experiment in a line: B1 Pre-emergence herbicidal activity. Also on record: key to Pre-emergence herbicidal activity, LOLPE (damage score 0-5): 5=total damage to plant; 0=no damage to plant. Conditions: pre-emergence application, rate 1000 g/ha, evaluated after 13 days. The method in brief:
as §1

The subject of assay [6] is Setaria fabenr (SETFA). Kind of assay: B1 Pre-emergence herbicidal activity. On the set-up: key to Pre-emergence herbicidal activity, SETFA (damage score 0-5): 5=total damage to plant; 0=no damage to plant. Conditions: pre-emergence application, rate 1000 g/ha, evaluated after 13 days. The method in brief: as §1
Assay [7] deals with Avena fatua (AVEFA). Kind of assay: B2 Post-emergence herbicidal activity. Conditions: post-emergence application, rate 1000 g/ha, evaluated after 13 days. In short, it runs like this: (§2)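 Test seeds are sown in standard soil and raised for 8 days under controlled glasshouse conditions (24/16 °C, 14 h light, 65% humidity). Foliage is then sprayed with compound formulated in 50:50 acetone/water plus 0.5% Tween 20, and plants are rated 0–5 for damage after 13 days.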

Assay [8] has as its system Echinochloa crus-galli (ECHCG). Kind of assay: B2 Post-emergence herbicidal activity. On the set-up: key to Post-emergence herbicidal activity, ECHCG (damage score 0-5): 5=total damage to plant; 0=no damage to plant. Conditions: post-emergence application, rate 1000 g/ha, evaluated after 13 days. In short, it runs like this:
as §2

The subject of assay [9] is Lolium perenne (LOLPE). The experiment in a line: B2 Post-emergence herbicidal activity. Conditions: post-emergence application, rate 1000 g/ha, evaluated after 13 days. In short, it runs like this: as §2
For assay [10], the system named is Alopecurus myosuroides (ALOMY). The experiment in a line: B2 Post-emergence herbicidal activity. As to conditions: post-emergence application, rate 1000 g/ha, evaluated after 13 days. On the set-up: key: 5=total damage to plant; 0=no damage to plant. In short, it runs like this: as §2
For assay [11], the system named is Setaria fabenri (SETFA). The experiment in a line: B2 Post-emergence herbicidal activity. Also on record: key: 5=total damage to plant; 0=no damage to plant. Conditions: post-emergence application, rate 1000 g/ha, evaluated after 13 days. In short, it runs like this: as §2
Assay [12] has as its system Triticum aestivium (TRZAW). Kind of assay: B2 Post-emergence herbicidal activity. Conditions: post-emergence application, rate 1000 g/ha, evaluated after 13 days. Also on record: key: 5=total damage to plant; 0=no damage to plant. The method in brief: as §2

As to `CC(=O)Nc1ccc(-c2cncnc2)nc1C(F)(F)F` [Compound C7], the “Pre-emergence herbicidal activity, ALOMY (damage score 0-5)” value (“Pre-emergence herbicidal activity, ALOMY” below) in assay [1] is 0. In assay [2], the “Pre-emergence herbicidal activity, AVEFA (damage score 0-5)” value (from here on “Pre-emergence herbicidal activity, AVEFA”) worked out at 3. Besides, the “Pre-emergence herbicidal activity, TRAZW (damage score 0-5)” value (shortened to “Pre-emergence herbicidal activity, TRAZW”) in [3] is 0. The “Pre-emergence herbicidal activity, ECHCG (damage score 0-5)” value (“Pre-emergence herbicidal activity, ECHCG” below) in assay [4] was 4. The “Pre-emergence herbicidal activity, LOLPE (damage score 0-5)” value (from here on “Pre-emergence herbicidal activity, LOLPE”) in [5] is 1. The “Pre-emergence herbicidal activity, SETFA (damage score 0-5)” value (shortened to “Pre-emergence herbicidal activity, SETFA”) in [6] is on record as 4. Also, in assay [7], the “Post-emergence herbicidal activity, AVEFA (damage score 0-5)” value came out at 4. The “Post-emergence herbicidal activity, ECHCG (damage score 0-5)” value in assay [8] amounted to 4. For the same compound, in assay [9], the “Post-emergence herbicidal activity, LOLPE (damage score 0-5)” value is recorded as 3. In addition, the “Post-emergence herbicidal activity, ALOMY (damage score 0-5)” value in assay [10] amounted to 1. Further, the “Post-emergence herbicidal activity, SETFA (damage score 0-5)” value in assay [11] is on record as 5. In [12], the “Post-emergence herbicidal activity, TRAZW (damage score 0-5)” value came out at 1.

Take `O=C(CCl)Nc1ccc(-c2cncc(F)c2)nc1C(F)(F)F` [Compound C35]: the “Pre-emergence herbicidal activity, ALOMY” value in [1] was 0. Also, the “Pre-emergence herbicidal activity, AVEFA” value in assay [2] is 1. In addition, the “Pre-emergence herbicidal activity, TRAZW” value in [3] amounted to 0. In [4], the “Pre-emergence herbicidal activity, ECHCG” value came to 4. The “Pre-emergence herbicidal activity, LOLPE” value in assay [5] was 1. Besides, in assay [6], the “Pre-emergence herbicidal activity, SETFA” value is 4. Besides, the “Post-emergence herbicidal activity, AVEFA (damage score 0-5)” value in [7] was 3. Besides, in assay [8], the “Post-emergence herbicidal activity, ECHCG (damage score 0-5)” value is 5. For the same compound, in assay [9], the “Post-emergence herbicidal activity, LOLPE (damage score 0-5)” value is given as 2. The “Post-emergence herbicidal activity, ALOMY (damage score 0-5)” value in assay [10] was found to be 0. Moreover, the “Post-emergence herbicidal activity, SETFA (damage score 0-5)” value in [11] was 5. For the same compound, the “Post-emergence herbicidal activity, TRAZW (damage score 0-5)” value in assay [12] is on record as 0.

For `O=C(Nc1ccc(-c2cncc(F)c2)nc1C(F)(F)F)c1c(F)cccc1F` [Compound C31], the “Pre-emergence herbicidal activity, ALOMY” value in assay [1] worked out at 1. Further, the “Pre-emergence herbicidal activity, AVEFA” value in assay [2] came out at 2. Further, the “Pre-emergence herbicidal activity, TRAZW” value in assay [3] was found to be 0. Moreover, the “Pre-emergence herbicidal activity, ECHCG” value in assay [4] is reported as 4. Also, the “Pre-emergence herbicidal activity, LOLPE” value in assay [5] was found to be 0. For the same compound, in assay [6], the “Pre-emergence herbicidal activity, SETFA” value is 5. Further, the “Post-emergence herbicidal activity, AVEFA (damage score 0-5)” value in [7] amounted to 3. Further, the “Post-emergence herbicidal activity, ECHCG (damage score 0-5)” value in assay [8] turned out to be 5. The “Post-emergence herbicidal activity, LOLPE (damage score 0-5)” value in [9] came out at 3. Also, the “Post-emergence herbicidal activity, ALOMY (damage score 0-5)” value in assay [10] turned out to be 0. The “Post-emergence herbicidal activity, SETFA (damage score 0-5)” value in assay [11] is on record as 5. For the same compound, in assay [12], the “Post-emergence herbicidal activity, TRAZW (damage score 0-5)” value is on record as 0.

With `O=C1CCC(=O)N1c1ccc(-c2cncnc2)nc1C(F)(F)F` [Compound C110], the “Pre-emergence herbicidal activity, ALOMY” value in assay [1] is 0. The “Pre-emergence herbicidal activity, AVEFA” value in assay [2] came out at 3. Further, the “Pre-emergence herbicidal activity, TRAZW” value in assay [3] is given as 0. Besides, the “Pre-emergence herbicidal activity, ECHCG” value in [4] is 4. In assay [5], the “Pre-emergence herbicidal activity, LOLPE” value is on record as 1. Besides, the “Pre-emergence herbicidal activity, SETFA” value in assay [6] is 4. Further, in assay [7], the “Post-emergence herbicidal activity, AVEFA (damage score 0-5)” value stood at 3. The “Post-emergence herbicidal activity, ECHCG (damage score 0-5)” value in [8] is 5. For the same compound, the “Post-emergence herbicidal activity, LOLPE (damage score 0-5)” value in assay [9] turned out to be 2. For the same compound, the “Post-emergence herbicidal activity, ALOMY (damage score 0-5)” value in [10] was 0. For the same compound, the “Post-emergence herbicidal activity, SETFA (damage score 0-5)” value in assay [11] came to 5. The “Post-emergence herbicidal activity, TRAZW (damage score 0-5)” value in assay [12] stood at 1.
